According to PMC8445441, “Elucidating the mechanism by which synthetic helper peptides sensitize Pseudomonas aeruginosa to multiple antibiotics” (PLoS Pathogens, 2021):
Read-outs that look alike come from different tables or passages of the source.

Columns and labels:
P. aeruginosa AUMC-Pa-3 = assay: microbe, parasite or virus in culture; conditions: strain AUMC-Pa-3
In short: (§1)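 MICs were determined by CLSI broth microdilution in MHB, in triplicate: two-fold drug dilutions were mixed 1:1 with bacterial suspension of ~1 × 10^6 CFU/mL and incubated 18 h at 37 °C. The MIC was the lowest concentration with no visible growth.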

P. aeruginosa AUMC-Pa-4 = assay: microbe, parasite or virus in culture; conditions: strain AUMC-Pa-4
In short: as §1

P. aeruginosa AUMC-Pa-5 = assay: microbe, parasite or virus in culture; conditions: strain AUMC-Pa-5
In short: as §1

P. aeruginosa AUMC-Pa-6 = assay: microbe, parasite or virus in culture; conditions: strain AUMC-Pa-6
In short: as §1

P. aeruginosa PAO1 = assay: microbe, parasite or virus in culture; conditions: PAO1; for FICI / MICac: the MIC for the antibiotic in the combination: S3 Table
In short: as §1

P. aeruginosa ATCC27853 = assay: microbe, parasite or virus in culture; set-up: MICa: MIC of the antibiotic / MICac: MIC of the antibiotic in the combination: unit not given beside the values; conditions: strain ATCC27853
Procedure: (§2) The MIC tests were performed in triplicate using broth microdilution in accordance with Clinical and Laboratory Standards Institute (CLSI) recommendations (http://iacld.ir/DL/public/CLSI-2018-M100-S28.pdf). Briefly, drugs were two-fold diluted in MHB and mixed with an equal volume of bacterial suspensions containing approximately 1 × 10^6 CFU/mL in 96-well microliter plate. After 18 h incubation at 37 °C, the MIC values were defined as the lowest concentrations of antibiotics with no visible growth of bacteria. […] Otherwise, 1/4 MIC of the peptide was used in the combination. […] If needed, membrane compounds PG, PE, PC, CL or LPS, or membrane stabilizers MgCl2 or CaCl2, or efflux pumps inhibitor PAβN were added to the broth medium to clarify the effect of other substances on the synergy between peptide and antibiotics. All the tests were performed in triplicate.
(§3) The fractional inhibitory concentration (FIC) indices were calculated using the previously described formula FICI = FICa + FICb = MICac/MICa + MICbc/MICb. The FICI was interpreted according to EUCAST [65] as follows: synergistic, FICI≤0.5; additive, 0.5<FICI≤1; indifferent, 1<FICI<2; antagonistic, FICI ≥2. For the FICI calculations, twice the highest concentration tested was used in the cases where the MIC was not reached.

P. aeruginosa NR-31040 = assay: microbe, parasite or virus in culture; set-up: MICa: MIC of the antibiotic / MICac: MIC of the antibiotic in the combination: unit not given beside the values
Procedure: as §2, §3

P. aeruginosa NR-31041 = assay: microbe, parasite or virus in culture; set-up: MICa: MIC of the antibiotic / MICac: MIC of the antibiotic in the combination: unit not given beside the values; conditions: strain NR-31041
Procedure: as §2, §3

P. aeruginosa PA14 = assay: microbe, parasite or virus in culture; set-up: MICa: MIC of the antibiotic / MICac: MIC of the antibiotic in the combination: unit not given beside the values; conditions: strain PA14
Procedure: as §2, §3

P. aeruginosa PAK = assay: microbe, parasite or virus in culture; set-up: MICa: MIC of the antibiotic / MICac: MIC of the antibiotic in the combination: unit not given beside the values; conditions: strain PAK
Procedure: as §2, §3

P. aeruginosa HM-214 = conditions: strain HM-214; antibiotic + D-11 (MICb/MICbc 128/4)
Procedure: as §2, §3

P. aeruginosa AUMC-Pa-1 = conditions: strain AUMC-Pa-1; antibiotic + D-11 (MICb/MICbc 128/4)
Procedure: as §2, §3

P. aeruginosa AUMC-Pa-2 = conditions: strain AUMC-Pa-2; antibiotic + D-11 (MICb/MICbc 64/4)
Procedure: as §2, §3

[1] = test system: clinical P. aeruginosa isolates; assay: microbe, parasite or virus in culture; conditions: Pseudomonas aeruginosa, 18 h, antibiotic alone
In short: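 Broth microdilution per CLSI in MHB, two-fold drug dilutions mixed with an equal volume of bacteria at about 1 × 10^6 CFU/mL. After 18 h at 37 °C, MIC taken as the lowest concentration with no visible growth; run in triplicate.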

[2] = antibiotic + D-11 (MICb/MICbc 128/4)
[3] = antibiotic alone, unit not given
[4] = with D-11 at MICbc 4, unit not given
[5] = antibiotic + D-11 (MICb/MICbc 64/4)

## CN(C)c1ccc(O)c2c1C[C@H]1C[C@H]3[C@H](N(C)C)C(O)=C(C(N)=O)C(=O)[C@@]3(O)C(O)=C1C2=O [Minocycline]
P. aeruginosa AUMC-Pa-3; [2]
  FICI: 0.156
P. aeruginosa AUMC-Pa-3; [3]
  MICa: MIC of the antibiotic: 16
P. aeruginosa AUMC-Pa-3; [4]
  MICac: MIC of the antibiotic in the combination: 2
P. aeruginosa AUMC-Pa-4; [2]
  FICI: 0.156
P. aeruginosa AUMC-Pa-4; [3]
  MICa: MIC of the antibiotic: 16
P. aeruginosa AUMC-Pa-4; [4]
  MICac: MIC of the antibiotic in the combination: 2
P. aeruginosa AUMC-Pa-5; [5]
  FICI: 1.063
P. aeruginosa AUMC-Pa-5; [3]
  MICa: MIC of the antibiotic: 16/16
P. aeruginosa AUMC-Pa-5; [4]
  MICac: MIC of the antibiotic in the combination: 16/16
P. aeruginosa AUMC-Pa-6; [5]
  FICI: 0.313
P. aeruginosa AUMC-Pa-6; [3]
  MICa: MIC of the antibiotic: 16
P. aeruginosa AUMC-Pa-6; [4]
  MICac: MIC of the antibiotic in the combination: 4
P. aeruginosa PAO1; Pseudomonas aeruginosa, PAO1, 18 h, read-out: MICa: the MIC of antibiotics, S3 Table, antibiotic alone
  MIC: 16 µM
P. aeruginosa PAO1; antibiotic + 2 μM D-11
  FICI: 0.094
P. aeruginosa PAO1; antibiotic + 4 μM D-11
  FICI: 0.141
P. aeruginosa PAO1; with 2 μM D-11
  MICac: the MIC for the antibiotic in the combination: 0.5 µM
P. aeruginosa PAO1; with 4 μM D-11
  MICac: the MIC for the antibiotic in the combination: 0.25 µM
P. aeruginosa ATCC27853; antibiotic + D-11 (MICb/MICbc 32/4)
  FICI: 0.188
P. aeruginosa ATCC27853; [3]
  MICa: MIC of the antibiotic: 16
P. aeruginosa ATCC27853; [4]
  MICac: MIC of the antibiotic in the combination: 1
P. aeruginosa NR-31040; Pseudomonas aeruginosa, NR31040, 18 h, read-out: MICa: MIC of the antibiotic
  MIC: 16 µM
P. aeruginosa NR-31040; strain NR-31040, antibiotic + D-11 (MICb/MICbc 128/4)
  FICI: 0.063
P. aeruginosa NR-31040; strain NR-31040, with D-11 at MICbc 4, unit not given
  MICac: MIC of the antibiotic in the combination: 0.5
P. aeruginosa NR-31041; [5]
  FICI: 0.188
P. aeruginosa NR-31041; [3]
  MICa: MIC of the antibiotic: 16
P. aeruginosa NR-31041; [4]
  MICac: MIC of the antibiotic in the combination: 2
P. aeruginosa PA14; [2]
  FICI: 0.156
P. aeruginosa PA14; [3]
  MICa: MIC of the antibiotic: 16
P. aeruginosa PA14; [4]
  MICac: MIC of the antibiotic in the combination: 2
P. aeruginosa PAK; [5]
  FICI: 0.125
P. aeruginosa PAK; [3]
  MICa: MIC of the antibiotic: 16
P. aeruginosa PAK; [4]
  MICac: MIC of the antibiotic in the combination: 1
P. aeruginosa HM-214
  FICI: 0.094
P. aeruginosa AUMC-Pa-1
  FICI: 0.094
P. aeruginosa AUMC-Pa-2
  FICI: 0.313
[1]; read-out: Antibiotic sensibility (MIC) of clinical P. aeruginosa isolate AUMC-Pa-1, strain AUMC-Pa-1
  MIC: 32 µM
[1]; read-out: Antibiotic sensibility (MIC) of clinical P. aeruginosa isolate AUMC-Pa-2, strain AUMC-Pa-2
  MIC: 8 µM
[1]; read-out: Antibiotic sensibility (MIC) of clinical P. aeruginosa isolate AUMC-Pa-3, strain AUMC-Pa-3
  MIC: 16 µM
[1]; read-out: Antibiotic sensibility (MIC) of clinical P. aeruginosa isolate AUMC-Pa-4, strain AUMC-Pa-4
  MIC: 16 µM
[1]; read-out: Antibiotic sensibility (MIC) of clinical P. aeruginosa isolate AUMC-Pa-5, strain AUMC-Pa-5
  MIC: 16 µM
[1]; read-out: Antibiotic sensibility (MIC) of clinical P. aeruginosa isolate AUMC-Pa-6, strain AUMC-Pa-6
  MIC: 16 µM
[1]; read-out: Antibiotic sensibility (MIC) of clinical P. aeruginosa isolate HM-214, strain HM-214
  MIC: 16 µM
[1]; read-out: Antibiotic sensibility (MIC) of clinical P. aeruginosa isolate NR-31040, strain NR-31040
  MIC: 16 µM
[1]; read-out: Antibiotic sensibility (MIC) of clinical P. aeruginosa isolate NR-31041, strain NR-31041
  MIC: 16 µM
